Data: patent US8349791B2, “Polypeptides that bind membrane proteins” (The Trustees of the University of Pennsylvania, priority 2006, dated 2013)
Peptide text beside a SMILES is read from it.

Key:
[1] = Trp fluorescence, phospholipid bilayer insertion; assay type: physicochemical; conditions: for insertion into phospholipid vesicles: FIG. 9
Method: Fluorescence intensity was measured on an ATF 105 spectrofluorometer (Aviv Biomedical, Inc., Lakewood, N.J.) using a 0.3 cm path length cuvette. Small unilamellar vesicles composed of 1-Palmitoyl-2-Oleoyl-sn-Glycero-3-Phosphocholine and 1-Palmitoyl-2-Oleoyl-sn-Glycero-3-[Phospho-rac-(1-glycerol)] (7:3) were prepared using standard ethanol dilution (Batzri S & Korn E D. Biochim. Biophys. Acta. 298, 1015-1019 (1973)): phospholipids were initially dissolved in 15 μl ethanol and then diluted to 1 ml with buffer (20 mM HEPES, pH=7.5). Samples with 1 μM anti-αIIb in the presence of 0, 100, and 500 μM total phospholipids were prepared. Excitation of 280 nm was used for emission scans ranging from 410 nm to 300 nm. Excitation and emission slit widths are 2.5 nm and 1.5 nm, respectively. An average time of 1.0 second was used.
See FIG. 9, which provides the emission scans of anti-αIIb (1 μM) and of anti-αV in the presence of three different concentrations of phospholipids. Provided are emission scans of 1 μM anti-αIIb (FIG. 9a) and 1 μM anti-αV (FIG. 9b) in presence of 0 μM (*), 100 μM (†), and 500 μM (^) of phospholipids (POPC:POPG=7:3, excitation wavelength=280 nm). The emission maximum of the Trp residue in anti-αIIb occurs at 353 nm, consistent with a fully-exposed Trp residue in the absence of membranes. In the presence of phospholipids vesicles, the emission maximum blue-shifts by 31 nm, indicating a transfer to a membrane-like environment.

[2] = TOXCAT homodimerization in bacterial membranes; assay type: cell-based, Escherichia coli; conditions: ToxR fusion in E. coli
Method: Both the affinity and specificity of the membrane protein-binding peptides for their targets when coexpressed in bacterial membranes were assessed with a DN-“TOXCAT” assay (FIGS. 3a-3c). In TOXCAT, a TM sequence of interest is fused to a ToxR protein (TM-ToxR) that binds to the ctx promoter as a dimer, which induces expression of chloramphenicol acetyltransferase (CAT) (W. P. Russ, D. M. Engelman, Proc. Natl. Acad. Sci. U.S.A. 96, 863 (1999); D. Langosch, B. Brosig, H. Kolmar, H. J. Fritz, J. Mol. Biol. 263, 525 (1996)). In the DN assay, the TM1-ToxR fusion protein is coexpressed with a second fusion protein (TM2-ToxR*) containing a nonfunctional mutant of the ToxR domain. TM-driven dimerization leads to a ToxR-ToxR* dimer that is unable to bind the ctx promoter or to induce CAT synthesis (FIG. 3a). The resulting decrease in CAT activity can be used to monitor the formation of a heterodimeric TM complex. In principle, this assay could be accomplished by adding an exogenous synthetic peptide (D. Gerber, N. Sal-Man, Y. Shai, J. Mol. Biol. 339, 243 (2004)); however, it is difficult to assure that different peptides will be similarly inserted into the Escherichia coli inner membrane. […]

αIIbβ3 = biological target: T1, αIIbβ3 (Homo sapiens, UniProt P08514); experiment: Force spectroscopy (laser tweezers), platelets and fibrinogen-coated beads; assay type: cell-based
T1 construct: trapped from a suspension of gel filtered human platelets or CHO cells; endogenous in cells; host or cells: gel-filtered human platelets
T1 sequence (P08514 891-1039 limits assumed): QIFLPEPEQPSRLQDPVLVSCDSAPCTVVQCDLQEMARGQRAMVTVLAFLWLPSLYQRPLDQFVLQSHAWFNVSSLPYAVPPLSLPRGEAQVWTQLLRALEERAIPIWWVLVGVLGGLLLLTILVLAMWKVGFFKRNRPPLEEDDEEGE
T1 sequence (P08514 32-887 partner limits assumed): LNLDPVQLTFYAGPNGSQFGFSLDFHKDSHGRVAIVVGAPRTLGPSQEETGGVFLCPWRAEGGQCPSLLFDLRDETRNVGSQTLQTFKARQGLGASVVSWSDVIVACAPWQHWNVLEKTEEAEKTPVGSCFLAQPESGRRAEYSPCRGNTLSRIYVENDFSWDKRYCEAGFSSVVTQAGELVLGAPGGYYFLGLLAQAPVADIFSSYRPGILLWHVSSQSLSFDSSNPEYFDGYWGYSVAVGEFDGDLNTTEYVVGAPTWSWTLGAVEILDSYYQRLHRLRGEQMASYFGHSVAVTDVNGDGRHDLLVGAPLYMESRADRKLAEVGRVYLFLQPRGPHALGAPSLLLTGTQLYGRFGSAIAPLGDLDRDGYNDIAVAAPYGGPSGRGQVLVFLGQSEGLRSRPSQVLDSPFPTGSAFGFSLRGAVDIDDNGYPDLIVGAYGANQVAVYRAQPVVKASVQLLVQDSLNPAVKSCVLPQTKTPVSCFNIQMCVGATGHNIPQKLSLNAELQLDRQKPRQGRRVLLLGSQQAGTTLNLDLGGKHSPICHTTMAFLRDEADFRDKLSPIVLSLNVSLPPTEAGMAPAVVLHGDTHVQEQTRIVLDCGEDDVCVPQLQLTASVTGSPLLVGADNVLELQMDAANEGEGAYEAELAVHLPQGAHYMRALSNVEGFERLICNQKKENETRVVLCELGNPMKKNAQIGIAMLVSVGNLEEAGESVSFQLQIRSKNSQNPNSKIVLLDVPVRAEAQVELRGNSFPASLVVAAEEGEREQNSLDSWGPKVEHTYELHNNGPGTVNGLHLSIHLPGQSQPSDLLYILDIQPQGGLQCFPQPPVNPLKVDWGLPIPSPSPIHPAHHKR
T1 sequence (P05106 27-788 partner): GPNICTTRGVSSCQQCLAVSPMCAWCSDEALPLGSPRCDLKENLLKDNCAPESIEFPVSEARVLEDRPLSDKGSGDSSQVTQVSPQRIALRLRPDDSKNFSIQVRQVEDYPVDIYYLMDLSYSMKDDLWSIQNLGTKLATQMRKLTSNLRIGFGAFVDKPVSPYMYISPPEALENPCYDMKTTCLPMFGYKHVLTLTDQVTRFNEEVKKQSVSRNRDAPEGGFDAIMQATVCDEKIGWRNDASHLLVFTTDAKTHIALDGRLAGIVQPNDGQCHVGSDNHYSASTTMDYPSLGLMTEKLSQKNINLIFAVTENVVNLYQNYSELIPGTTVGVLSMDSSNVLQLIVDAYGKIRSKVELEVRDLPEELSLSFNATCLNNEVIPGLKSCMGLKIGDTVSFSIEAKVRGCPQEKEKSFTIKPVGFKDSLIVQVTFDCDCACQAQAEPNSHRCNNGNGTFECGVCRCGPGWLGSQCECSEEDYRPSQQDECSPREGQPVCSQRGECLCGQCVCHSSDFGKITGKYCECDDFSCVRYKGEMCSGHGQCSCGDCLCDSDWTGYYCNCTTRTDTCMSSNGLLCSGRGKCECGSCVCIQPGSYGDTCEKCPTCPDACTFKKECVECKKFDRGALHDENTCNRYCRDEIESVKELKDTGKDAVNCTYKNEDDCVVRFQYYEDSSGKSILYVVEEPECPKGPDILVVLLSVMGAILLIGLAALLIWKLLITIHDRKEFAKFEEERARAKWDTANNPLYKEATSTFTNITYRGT
Text: Litvinov R I et al. Proc. Natl. Acad. Sci. USA. 99, 7426-31 (2002). Recombinant human OPN, prepared as previously described (Bennett J S et al. J. Biol. Chem. 272, 8137-40 (1997)) or purified human fibrinogen was covalently bound to 0.93 μm carboxylate-modified latex beads. Individual cells, trapped from a suspension of gel filtered human platelets or CHO cells, were manually attached to 5 μm diameter silica pedestals coated with polylysine. An OPN- or fibrinogen-coated bead, trapped by the laser light, was then brought into proximity of an immobilized cell, oscillated at 50 Hz, and then brought into repeated intermittent contact with the cell by micromanipulation. Data collection was initiated at the first contact between the bead and the cell. Rupture forces following repeated contacts were collected for periods of several seconds to one minute. Individual forces measured during each contact-detachment cycle were collected into 10 pN-wide bins. The number of events in each bin was then plotted against the average force for that bin after normalizing for the total number of interaction cycles. Thus, the percentage of events in a particular force range (bin) represents the probability of rupture events at that tension. Optical artifacts observed with or without trapped latex beads produce signals that appeared as forces below 10 pN. Therefore, rupture forces in this range were not considered when the data were analyzed. The polypeptide was added from a DMSO solution such that the final concentration of DMSO was no greater than 0.5%. All controls also had 0.5% DMSO in the buffer.
Beads coated with fibrinogen were brought into intermittent contact with immobilized platelets in the presence or absence of anti-αIIb and the rupture force was measured. Litvinov R I et al. J. Biol. Chem. 278, 51285-51290 (2003). In the absence of anti-αIIb, the binding probability of platelets and fibrinogen-coated beads decreased exponentially (FIG. 5a) with increasing force, consistent with a non-specific interaction of the beads with the platelet surface. Litvinov R I (2003). […]

αv TM domain = biological target: T2, αv TM domain (Homo sapiens, UniProt P06756); experiment: DN-TOXCAT heterodimerization; assay type: cell-based; conditions: coexpressed in bacterial membranes
T2 construct: expressed in transfected cells; host or cells: E. coli MM39, pDNToxR-Duet
T2 sequence (P06756 with tags, fused parts or gaps limits assumed): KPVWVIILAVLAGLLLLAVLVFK
Method: Both the affinity and specificity of the membrane protein-binding peptides for their targets when coexpressed in bacterial membranes were assessed with a DN-“TOXCAT” assay (FIGS. 3a-3c). In TOXCAT, a TM sequence of interest is fused to a ToxR protein (TM-ToxR) that binds to the ctx promoter as a dimer, which induces expression of chloramphenicol acetyltransferase (CAT) (W. P. Russ, D. M. Engelman, Proc. Natl. Acad. Sci. U.S.A. 96, 863 (1999); D. Langosch, B. Brosig, H. Kolmar, H. J. Fritz, J. Mol. Biol. 263, 525 (1996)). In the DN assay, the TM1-ToxR fusion protein is coexpressed with a second fusion protein (TM2-ToxR*) containing a nonfunctional mutant of the ToxR domain. TM-driven dimerization leads to a ToxR-ToxR* dimer that is unable to bind the ctx promoter or to induce CAT synthesis (FIG. 3a). The resulting decrease in CAT activity can be used to monitor the formation of a heterodimeric TM complex. In principle, this assay could be accomplished by adding an exogenous synthetic peptide (D. Gerber, N. Sal-Man, Y. Shai, J. Mol. Biol. 339, 243 (2004)); however, it is difficult to assure that different peptides will be similarly inserted into the Escherichia coli inner membrane.
For testing the specificity of the designed membrane protein-binding polypeptide sequences against the integrin TM domains, the designed sequences (anti-αIIb and anti-αV) were cloned into MCS1 of the Duet vector and the integrin TM domains into MCS2 of the Duet vector. In this configuration, the integrin TMs compete for the homodimers formed by the polypeptide sequences, with the decrease in CAT signal proportional to the extent of heterodimerization between a given integrin TM and polypeptide sequence relative to the homodimerization of the polypeptide sequence.
Single MM39 colonies containing pDNToxR-Duet constructs from selective plates were chosen, inoculated in 5 mL of LB medium containing 100 μg/mL ampicillin and grown to an OD600 of 0.2 at 37° C. with vigorous shaking. IPTG was added to the medium at a final concentration of 0.1 mM IPTG and grown to an OD600 of 0.7. Purification, immunoblotting, CAT ELISA and MalE complementation assays are essentially as described previously. Li, R., Gorelik, R., Nanda, V., Law, P. B., Lear, J. D., DeGrado, W. F. and Bennett, J. S. J. Biol. Chem. 2004, 279, 26666-26673 (2004). For immunoblotting, anti-MBP (NEB) was used for pccKAN (TOXCAT) constructs, whereas anti-myc (Covance) and anti-HA (Covance) were used for pDNToxR-Duet constructs. CAT ELISA results are an average of 3 independent replicates.

Question: For `CC[C@H](C)[C@H](NC(=O)[C@H](Cc1ccccc1)NC(=O)[C@H](Cc1ccccc1)NC(=O)[C@@H]1CCCN1C(=O)[C@H](CC(C)C)NC(=O)[C@H](CC(C)C)NC(=O)[C@H](CCSC)NC(=O)[C@@H](NC(=O)[C@H](Cc1ccc(O)cc1)NC(=O)[C@H](C)NC(=O)[C@H](CCCCN)NC(=O)[C@@H](N)CCCCN)C(C)C)C(=O)NCC(=O)N[C@@H](CC(C)C)C(=O)N[C@@H](CC(C)C)C(=O)N[C@@H](CC(C)C)C(=O)NCC(=O)N[C@@H](CC(C)C)C(=O)N[C@H](C(=O)N[C@@H](Cc1ccccc1)C(=O)NCC(=O)NCC(=O)N[C@@H](C)C(=O)N[C@@H](Cc1ccccc1)C(=O)N[C@@H](Cc1c[nH]c2ccccc12)C(=O)NCC(=O)N1CCC[C@H]1C(=O)N[C@@H](C)C(=O)N[C@@H](CCCNC(=N)N)C(=O)N[C@@H](Cc1c[nH]cn1)C(=O)N[C@@H](CC(C)C)C(=O)N[C@@H](CCCCN)C(=O)N[C@@H](CCCCN)C(N)=O)[C@@H](C)CC` [anti-αIIb] (H-KKAYVMLLPFFIGLLLGLIFGGAFWGPARHLKK-NH2; N-terminus assumed), which “blue-shift of Trp emission maximum in the presence of phospholipid vesicles” value ([1]; 1 μM peptide, POPC:POPG 7:3 vesicles) is on record?
Answer: 31 nm

Question: And the “emission maximum of the Trp residue in the absence of membranes” value ([1]; 1 μM peptide, excitation 280 nm, 0 μM phospholipids)?
Answer: 353 nm

Question: What about the “insertion into phospholipid vesicles” value [1] of the same compound?
Answer: successfully insert

Question: What about the “homodimer formation in bacterial membranes (CAT signal, words)” value [2] of the same compound?
Answer: affinity similar to that of the TM domain of glycophorin A (GpA)

Question: What about the “peak of rupture force between platelets and fibrinogen-coated beads” value (αIIbβ3; 0.5 μM polypeptide) of the same compound?
Answer: ~70 pN

Question: What about the “rupture force peak after pre-incubation with αIIbβ3 antibody abciximab” value (αIIbβ3; 0.5 μM polypeptide) of the same compound?
Answer: eliminated the rupture force peak

Question: And the “interaction with αv TM domain” value (αv TM domain)?
Answer: failed to significantly interact

Question: Which results are given for AYVFILLSFILGTLLGFLVMFWA [anti-αV]?
Answer: insertion into phospholipid vesicles [1]: successfully insert; homodimer formation in bacterial membranes (CAT signal, words) [2]: affinity similar to that of the TM domain of glycophorin A (GpA); rupture force / activation, platelets and fibrinogen-coated beads (αIIbβ3): no peak of specific rupture force was observed; interaction with αv TM domain (αv TM domain): much greater affinity than the α2, αIIb, β1, or β3 domains
